Results published in patent publication US8604218B2, “Cytoskeletal active rho kinase inhibitor compounds, composition and use” (Inspire Pharmaceuticals, Inc., priority 2006, dated 2013).

Biological target: ROCK2 (Homo sapiens (Human), UniProt O75116)
Assay: Rho Kinase Inhibition Assay (IMAP fluorescence polarization)
Type: biochemical
Conditions: isolated enzyme, 10 μM ATP, 60 minutes at room temperature

Chain of ROCK2 (O75116 11-552): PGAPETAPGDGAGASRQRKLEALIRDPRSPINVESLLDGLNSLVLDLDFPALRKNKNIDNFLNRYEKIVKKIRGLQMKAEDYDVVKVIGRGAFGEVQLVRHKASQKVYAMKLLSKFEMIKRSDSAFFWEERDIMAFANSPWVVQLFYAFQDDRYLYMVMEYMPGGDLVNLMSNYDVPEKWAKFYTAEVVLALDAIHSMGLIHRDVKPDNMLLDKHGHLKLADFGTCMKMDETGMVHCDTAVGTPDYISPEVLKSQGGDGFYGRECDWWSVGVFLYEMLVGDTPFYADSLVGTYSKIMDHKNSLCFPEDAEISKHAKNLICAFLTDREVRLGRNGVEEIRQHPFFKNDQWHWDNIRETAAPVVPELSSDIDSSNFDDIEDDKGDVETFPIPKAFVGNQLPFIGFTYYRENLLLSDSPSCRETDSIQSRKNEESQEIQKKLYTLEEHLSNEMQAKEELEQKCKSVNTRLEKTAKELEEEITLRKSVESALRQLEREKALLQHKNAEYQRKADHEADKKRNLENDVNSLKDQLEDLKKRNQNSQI

SMILES | IC50 [nM]
Cc1ccc(CN2CCCC(Nc3ccc4[nH]ncc4c3)C2)cc1OCCO (stereo not shown) [Compound 1.058, 2-(5-((3-(1H-indazol-5-ylamino)piperidin-1-yl)methyl)-2-methylphenoxy)ethanol] | 47.5
c1cc(CN2CC[C@@H](Nc3cccc4cnccc34)C2)cc(C2CC2)c1 [Compound 2.020, (R)-N-(1-(3-cyclopropylbenzyl)pyrrolidin-3-yl)isoquinolin-5-amine] | 820
CC(C)(C)OC(=O)NCc1ccc(CN2CCCC(Nc3ccc4[nH]ncc4c3)C2)cc1 (stereo not shown) [Compound 1.027, tert-butyl 4-((3-(1H-indazol-5-ylamino)piperidin-1-yl)methyl)benzylcarbamate] | 6600
Clc1ccc(CN2CCC(Nc3ccc4[nH]ncc4c3)C2)cc1Cl (stereo not shown) [Compound 1.062, N-(1-(3,4-dichlorobenzyl)pyrrolidin-3-yl)-1H-indazol-5-amine] | 155
CS(=O)(=O)Nc1cccc(CN2CC[C@@H](Nc3cccc4cnccc34)C2)c1 [Compound 2.038, (R)-N-(3-((3-(isoquinolin-5-ylamino)pyrrolidin-1-yl)methyl)phenyl)methanesulfonamide] | 112
CS(=O)(=O)Nc1cccc(CN2CCC[C@H](Nc3cccc4cnccc34)C2)c1 [Compound 2.037, (S)-N-(3-((3-(isoquinolin-5-ylamino)piperidin-1-yl)methyl)phenyl)methanesulfonamide] | 3060
NC(=O)Cn1ccc2ccc(CN3CCC[C@H](Nc4ccc5[nH]ncc5c4)C3)cc21 [Compound 1.107, (S)-2-(6-((3-(1H-indazol-5-ylamino)piperidin-1-yl)methyl)-1H-indol-1-yl)acetamide] | 148
COc1ccccc1CN1CCCC(Nc2ccc3[nH]ncc3c2)C1 (stereo not shown) [Compound 1.067, N-(1-(2-methoxybenzyl)piperidin-3-yl)-1H-indazol-5-amine] | 1850
O=C(COc1cccc(CN2CC[C@@H](Nc3cccc4cnccc34)C2)c1)N1CCOCC1 [Compound 2.043, (R)-2-(3-((3-(isoquinolin-5-ylamino)pyrrolidin-1-yl)methyl)phenoxy)-1-morpholinoethanone] | 383
CSc1cccc(CN2CCCC(Nc3ccc4[nH]ncc4c3)C2)c1 (stereo not shown) [Compound 1.040, N-(1-(3-(methylthio)benzyl)piperidin-3-yl)-1H-indazol-5-amine] | 144
OCCOc1cccc(CN2CC[C@@H](Nc3ccc4[nH]ncc4c3)C2)c1 [Compound 1.096, (R)-2-(3-((3-(1H-indazol-5-ylamino)pyrrolidin-1-yl)methyl)phenoxy)ethanol] | 1300
CS(=O)(=O)Nc1cccc(CN2CC[C@H](Nc3ccc4[nH]ncc4c3)C2)c1 [Compound 1.095, (S)-N-(3-((3-(1H-indazol-5-ylamino)pyrrolidin-1-yl)methyl)phenyl)methanesulfonamide] | 647
CS(=O)(=O)Nc1cccc(CN2CCC(Nc3ccc4[nH]ncc4c3)C2)c1 (stereo not shown) [Compound 1.087, N-(3-((3-(1H-indazol-5-ylamino)pyrrolidin-1-yl)methyl)phenyl)methanesulfonamide] | 280
C#Cc1cccc(CN2CCCC(Nc3ccc4[nH]ncc4c3)C2)c1 (stereo not shown) [Compound 1.047, N-(1-(3-ethynylbenzyl)piperidin-3-yl)-1H-indazol-5-amine] | 57
CCS(=O)(=O)Nc1cccc(CN2CCC[C@@H](Nc3ccc4[nH]ncc4c3)C2)c1 [Compound 1.123, (R)-N-(3-((3-(1H-indazol-5-ylamino)piperidin-1-yl)methyl)phenyl)ethanesulfonamide] | 135
Clc1ccc(CN2CCC[C@H](Nc3ccc4[nH]ncc4c3)C2)cc1 [Compound 1.081, (S)-N-(1-(4-chlorobenzyl)piperidin-3-yl)-1H-indazol-5-amine] | 30.1

SMILES | IC50 [nM]
O=C(O)COc1cccc(CN2CCC[C@@H](Nc3ccc4[nH]ncc4c3)C2)c1 [Compound 1.125, (R)-2-(3-((3-(1H-indazol-5-ylamino)piperidin-1-yl)methyl)phenoxy)acetic acid] | 879
OCC#Cc1ccc(CN2CCCC(Nc3ccc4[nH]ncc4c3)C2)cc1 (stereo not shown) [Compound 1.042, 3-(4-((3-(1H-indazol-5-ylamino)piperidin-1-yl)methyl)phenyl)prop-2-yn-1-ol] | 4400
OCCn1ccc2ccc(CN3CCC[C@H](Nc4ccc5[nH]ncc5c4)C3)cc21 [Compound 1.109, (S)-2-(6-((3-(1H-indazol-5-ylamino)piperidin-1-yl)methyl)-1H-indol-1-yl)ethanol] | 242
FC(F)(F)c1cccc(Oc2cccc(CN3CCCC(Nc4ccc5[nH]ncc5c4)C3)c2)c1 (stereo not shown) [Compound 1.070, N-(1-(3-(3-(trifluoromethyl)phenoxy)benzyl)piperidin-3-yl)-1H-indazol-5-amine] | 6680
O=C(O)Cn1ccc2cc(CN3CCCC(Nc4ccc5[nH]ncc5c4)C3)ccc21 (stereo not shown) [Compound 1.119, 2-(5-((3-(1H-indazol-5-ylamino)piperidin-1-yl)methyl)-1H-indol-1-yl)acetic acid] | 3630
OCc1ccc(CN2CCCC(Nc3ccc4[nH]ncc4c3)C2)cc1 (stereo not shown) [Compound 1.025, (4-((3-(1H-indazol-5-ylamino)piperidin-1-yl)methyl)phenyl)methanol] | 588
Fc1ccc(CN2CCC[C@H](Nc3ccc4[nH]ncc4c3)C2)cc1F [Compound 1.072, (S)-N-(1-(3,4-difluorobenzyl)piperidin-3-yl)-1H-indazol-5-amine] | 58.5
OC[C@@H](O)COc1cccc(CN2CCC[C@@H](Nc3ccc4[nH]ncc4c3)C2)c1 [Compound 1.115, (R)-3-(3-(((R)-3-(1H-indazol-5-ylamino)piperidin-1-yl)methyl)phenoxy)propane-1,2-diol] | 555
C#Cc1ccc(CN2CCC[C@@H](Nc3ccc4[nH]ncc4c3)C2)cc1 [Compound 1.076, (R)-N-(1-(4-ethynylbenzyl)piperidin-3-yl)-1H-indazol-5-amine] | 111
CC(C)(C)OC(=O)NCc1cccc(CN2CCCC(Nc3ccc4[nH]ncc4c3)C2)c1 (stereo not shown) [Compound 1.057, tert-butyl 3-((3-(1H-indazol-5-ylamino)piperidin-1-yl)methyl)benzylcarbamate] | 194
CS(=O)(=O)Nc1cccc(CN2CCC[C@@H](Nc3ccc4[nH]ncc4c3)C2)c1 [Compound 1.093, (R)-N-(3-((3-(1H-indazol-5-ylamino)piperidin-1-yl)methyl)phenyl)methanesulfonamide] | 101
CCS(=O)(=O)Nc1cccc(CN2CCCC(Nc3ccc4[nH]ncc4c3)C2)c1 (stereo not shown) [Compound 1.120, N-(3-((3-(1H-indazol-5-ylamino)piperidin-1-yl)methyl)phenyl)ethanesulfonamide] | 109
CS(=O)(=O)Nc1cccc(CN2CCC[C@H](Nc3ccc4[nH]ncc4c3)C2)c1 [Compound 1.091, (S)-N-(3-((3-(1H-indazol-5-ylamino)piperidin-1-yl)methyl)phenyl)methanesulfonamide] | 49.4
c1ccc(-c2ccc(CN3CCCC(Nc4ccc5[nH]ncc5c4)C3)cc2)cc1 (stereo not shown) [Compound 1.009, N-(1-(biphenyl-4-ylmethyl)piperidin-3-yl)-1H-indazol-5-amine] | 1610
OCCOc1cccc(CN2CCC[C@@H](Nc3cccc4cnccc34)C2)c1 [Compound 2.034, (R)-2-(3-((3-(isoquinolin-5-ylamino)piperidin-1-yl)methyl)phenoxy)ethanol] | 4010
